The target in the test is T1, GSPT1 protein (Homo sapiens, UniProt P15170+Q96SW2).
T1 construct: endogenous in cells; host or cells: HL-60 cells
The experiment in a line: GSPT1 degradation assay (western blot) in HL-60 cells. The test is classed as cell-based. To be noted: GSPT1 protein level, 2h incubation, western blot normalized to beta-Actin; for inhibition at 0.1 µM: 0.1 μM compound; for inhibition at 1 µM: 1 μM compound. On the procedure: HL-60 cells (4×10^^6 cells/well) were seeded in 6-well culture plate (Costar, 3516) and treated with a variety of concentrations of test compound. After 2h incubation, cells were collected and lysed. The protein concentration was determined by BCA protein assay kit from Thermo (23227). The GSPT1 protein level was determined by western blots, using GSPT1 polyclonal antibody. Proteins were loaded into each well of the pre-casting gels and subjected to electrophoretic separation by SDS-PAGE. The protein resolved by SDS-PAGE were transferred to PVDF, blocked by 5% skim milk and probed with anti-GSPT1 antibody (Proteintech, 10763-1-AP) or anti-β-actin antibody (CST, 3700S), using following standard western blotting procedure. Blots intensities were quantified using ImageJ software and the intensity of GSPT1 bands were normalized to beta-Actin bands, respectively. The GSPT1 degradation results were then calculated. Reported compound C84971 (see WO2021126974A1 and WO2021126973A1) was used as a reference.
In general terms: A western blot detects proteins with antibodies after separation by electrophoresis.

This is an account of results in patent publication US20260108521A1, “GSPT1 DEGRADERS, COMPOSITIONS COMPRISING THE DEGRADER, AND METHODS OF USING THE SAME” (BIOFRONT LTD, priority 2022, published 2026).

Structures are written as SMILES. Bounds are passed on as bounds.

By inhibition is commonly meant the drop in the measured response relative to a control, in per cent. A lower inhibition goes with a weak effect.

T1 sequence (P15170 whole entry): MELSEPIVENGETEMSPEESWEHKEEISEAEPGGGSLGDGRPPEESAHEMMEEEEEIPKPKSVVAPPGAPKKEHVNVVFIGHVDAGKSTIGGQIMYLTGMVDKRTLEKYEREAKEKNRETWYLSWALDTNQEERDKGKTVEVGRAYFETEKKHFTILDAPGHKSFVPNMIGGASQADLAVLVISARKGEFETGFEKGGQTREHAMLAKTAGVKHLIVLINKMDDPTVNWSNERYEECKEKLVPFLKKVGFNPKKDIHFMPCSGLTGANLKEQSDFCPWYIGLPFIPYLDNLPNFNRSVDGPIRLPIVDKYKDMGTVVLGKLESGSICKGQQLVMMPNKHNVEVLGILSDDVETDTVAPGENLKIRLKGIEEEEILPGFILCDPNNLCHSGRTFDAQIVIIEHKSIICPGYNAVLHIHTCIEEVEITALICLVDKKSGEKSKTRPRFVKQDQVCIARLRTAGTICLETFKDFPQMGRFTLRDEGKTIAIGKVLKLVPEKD
T1 sequence (Q96SW2 whole entry): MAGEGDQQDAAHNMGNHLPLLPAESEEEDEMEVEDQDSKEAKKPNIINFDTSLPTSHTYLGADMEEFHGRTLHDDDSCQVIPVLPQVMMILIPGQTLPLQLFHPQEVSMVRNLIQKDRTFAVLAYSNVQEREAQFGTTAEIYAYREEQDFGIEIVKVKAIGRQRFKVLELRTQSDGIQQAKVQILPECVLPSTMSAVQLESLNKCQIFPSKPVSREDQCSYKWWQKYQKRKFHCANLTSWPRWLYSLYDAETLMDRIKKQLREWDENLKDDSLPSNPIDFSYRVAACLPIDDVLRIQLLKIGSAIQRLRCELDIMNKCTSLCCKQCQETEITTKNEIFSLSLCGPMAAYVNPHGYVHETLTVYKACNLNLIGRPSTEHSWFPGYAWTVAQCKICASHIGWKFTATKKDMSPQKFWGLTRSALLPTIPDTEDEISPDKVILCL
T1 sequence (Q16531 whole entry partner): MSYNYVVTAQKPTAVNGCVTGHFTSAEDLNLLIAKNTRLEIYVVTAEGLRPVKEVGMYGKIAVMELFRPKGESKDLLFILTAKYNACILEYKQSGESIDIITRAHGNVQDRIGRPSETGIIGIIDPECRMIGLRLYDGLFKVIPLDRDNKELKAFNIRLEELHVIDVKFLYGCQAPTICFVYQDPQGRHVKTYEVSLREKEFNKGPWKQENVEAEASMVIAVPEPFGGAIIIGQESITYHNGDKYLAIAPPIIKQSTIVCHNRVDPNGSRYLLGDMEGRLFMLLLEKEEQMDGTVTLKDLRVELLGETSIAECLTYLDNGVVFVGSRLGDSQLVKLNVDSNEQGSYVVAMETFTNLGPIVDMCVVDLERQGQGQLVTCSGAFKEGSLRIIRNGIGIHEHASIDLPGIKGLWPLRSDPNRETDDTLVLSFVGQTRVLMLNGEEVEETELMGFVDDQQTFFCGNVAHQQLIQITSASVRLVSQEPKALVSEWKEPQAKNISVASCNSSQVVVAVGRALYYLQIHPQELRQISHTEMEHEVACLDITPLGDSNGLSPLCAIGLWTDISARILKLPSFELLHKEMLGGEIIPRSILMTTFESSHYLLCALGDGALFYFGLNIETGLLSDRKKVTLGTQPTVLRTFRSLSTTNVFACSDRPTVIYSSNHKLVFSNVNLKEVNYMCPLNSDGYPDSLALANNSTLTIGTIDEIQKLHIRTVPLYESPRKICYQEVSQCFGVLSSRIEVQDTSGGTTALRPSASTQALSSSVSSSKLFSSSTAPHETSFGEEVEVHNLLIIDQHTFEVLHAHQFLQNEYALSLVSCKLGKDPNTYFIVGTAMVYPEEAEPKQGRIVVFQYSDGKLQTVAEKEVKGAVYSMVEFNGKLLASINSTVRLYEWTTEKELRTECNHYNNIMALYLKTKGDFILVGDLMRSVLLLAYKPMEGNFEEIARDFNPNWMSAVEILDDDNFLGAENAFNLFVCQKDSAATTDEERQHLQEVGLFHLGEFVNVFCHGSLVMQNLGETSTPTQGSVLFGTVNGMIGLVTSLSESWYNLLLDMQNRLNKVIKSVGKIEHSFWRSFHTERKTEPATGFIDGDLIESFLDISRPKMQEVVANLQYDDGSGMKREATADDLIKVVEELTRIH

Compound `CNC(=O)c1ccc(-c2cccc(N3CCCN(CC4CCN(c5ccc6c(c5)C(=O)N(C5CCC(=O)NC5=O)C6=O)CC4)C3=O)c2)c(Cl)c1` (stereo not drawn) [Compound 31, 3-chloro-4-{3-[3-({1-[2-(2,6-dioxopiperidin-3-yl)-1,3-dioxoisoindol-5-yl]piperidin-4-yl}methyl)-2-oxo-1,3-diazinan-1-yl]phenyl}-N-methylbenzamide] gave an inhibition at 0.1 µM of 45% and an inhibition at 1 µM of 55%.

`CCNc1ccc(-c2cccc(N3CCCN(CC4CCN(c5ccc6c(c5)C(=O)N(C5CCC(=O)NC5=O)C6=O)CC4)C3=O)c2)c(Cl)c1` (stereo not drawn) [Compound 30, 5-{4-[(3-{3-[2-chloro-4-(ethylamino)phenyl]phenyl}-2-oxo-1,3-diazinan-1-yl)methyl]piperidin-1-yl}-2-(2,6-dioxopiperidin-3-yl)isoindole-1,3-dione] displayed an inhibition at 0.1 µM of 37% and an inhibition at 1 µM of 45%.

Compound `Cc1csc(N2CCCN(CC3CCN(c4ccc5c(c4)C(=O)N(C4CCC(=O)NC4=O)C5=O)CC3)C2=O)n1` (stereo not drawn) [Compound 18, 2-(2,6-dioxopiperidin-3-yl)-5-(4-{[3-(4-methyl-1,3-thiazol-2-yl)-2-oxo-1,3-diazinan-1-yl]methyl}piperidin-1-yl)isoindole-1,3-dione] gave an inhibition at 0.1 µM of 32% and an inhibition at 1 µM of 36%.

In turn, `O=C1CCC(N2C(=O)c3ccc(N4CCC(CN5CCCN(Cc6ccc(F)cc6)C5=O)CC4)cc3C2=O)C(=O)N1` (stereo not drawn) [Compound 16, 2-(2,6-dioxopiperidin-3-yl)-5-(4-((3-(4-fluorobenzyl)-2-oxotetrahydropyrimidin-1(2H)-yl)methyl)piperidin-1-yl)isoindoline-1,3-dione] showed an inhibition at 0.1 µM of 26% and an inhibition at 1 µM of 32%.

Turning to `O=C1CCC(c2ccc(N3CCC(CCN4CCCN(c5ccccc5)C4=O)CC3)cc2)C(=O)N1` (stereo not drawn) [Compound 20, 3-(4-(4-(2-(2-oxo-3-phenyltetrahydropyrimidin-1(2H)-yl)ethyl)piperidin-1-yl)phenyl)piperidine-2,6-dione], testing at 0.1 µM gave an inhibition of 0% and the inhibition at 1 µM is 0%.

On to `CN(C)C(=O)c1ccc(-c2cccc(N3CCCN(CC4CCN(c5ccc6c(c5)C(=O)N(C5CCC(=O)NC5=O)C6=O)CC4)C3=O)c2)c(Cl)c1` (stereo not drawn) [Compound 32, 3-chloro-4-{3-[3-({1-[2-(2,6-dioxopiperidin-3-yl)-1,3-dioxoisoindol-5-yl]piperidin-4-yl}methyl)-2-oxo-1,3-diazinan-1-yl]phenyl}-N,N-dimethylbenzamide], for which the inhibition at 0.1 µM is < 10% and the inhibition at 1 µM was < 10%.

Turning to `O=C1CCC(N2C(=O)c3ccc(N4CCC(CN5CCN(Cc6ccc(F)cc6)C5=O)CC4)cc3C2=O)C(=O)N1` (stereo not drawn) [Compound 17, 2-(2,6-dioxopiperidin-3-yl)-5-(4-((3-(4-fluorobenzyl)-2-oxoimidazolidin-1-yl)methyl)piperidin-1-yl)isoindoline-1,3-dione], 0.1 µM produced 36% inhibition and at 1 µM the inhibition was 22%.

On to `O=C1CCC(N2C(=O)c3ccc(N4CCC(CN5CCCN(c6cccc(Cl)c6)C5=O)CC4)cc3C2=O)C(=O)N1` (stereo not drawn) [Compound 14, 5-(4-((3-(3-chlorophenyl)-2-oxotetrahydropyrimidin-1(2H)-yl)methyl)piperidin-1-yl)-2-(2,6-dioxopiperidin-3-yl)isoindoline-1,3-dione], for which the inhibition at 0.1 µM was 0% and testing at 1 µM gave an inhibition of 0%.

For the compound `O=C1CCC(N2C(=O)c3ccc(N4CCC(CN5CCCN(c6ccccn6)C5=O)CC4)cc3C2=O)C(=O)N1` (stereo not drawn) [Compound 4, 2-(2,6-dioxopiperidin-3-yl)-5-(4-{[2-oxo-3-(pyridin-2-yl)-1,3-diazinan-1-yl]methyl}piperidin-1-yl)isoindole-1,3-dione], the inhibition at 0.1 µM was 0% and testing at 1 µM gave an inhibition of 0%.
